Activity calls are given as the source filed them. The rule behind the calls is not given here.
Test system: CCRIS mutagenicity, Ames/micronucleus/aberration tests
Assay: CCRIS mutagenicity studies
[1] = Test System: AMES SALMONELLA TYPHIMURIUM, Strain/Indicator: TA98, Metabolic Activation: NONE, Method: PREINCUBATION
[2] = Test System: AMES SALMONELLA TYPHIMURIUM, Strain/Indicator: TA100, Metabolic Activation: NONE, Method: PREINCUBATION
[3] = Test System: AMES SALMONELLA TYPHIMURIUM, Strain/Indicator: TA1535, Metabolic Activation: NONE, Method: PREINCUBATION
[4] = Test System: AMES SALMONELLA TYPHIMURIUM, Strain/Indicator: TA1537, Metabolic Activation: NONE, Method: PREINCUBATION
[5] = Test System: AMES SALMONELLA TYPHIMURIUM, Strain/Indicator: TA98, Metabolic Activation: NONE, Method: STANDARD PLATE
[6] = Test System: AMES SALMONELLA TYPHIMURIUM, Strain/Indicator: TA98, Metabolic Activation: RAT, LIVER, S-9, AROCLOR 1254, Method: STANDARD PLATE
[7] = Test System: AMES SALMONELLA TYPHIMURIUM, Strain/Indicator: TA100, Metabolic Activation: NONE, Method: STANDARD PLATE
[8] = Test System: AMES SALMONELLA TYPHIMURIUM, Strain/Indicator: TA100, Metabolic Activation: RAT, LIVER, S-9, AROCLOR 1254, Method: STANDARD PLATE

## O=C(OC1CCCCC1)c1ccccc1C(=O)OC1CCCCC1
Test System: AMES SALMONELLA TYPHIMURIUM, Strain/Indicator: TA98, Metabolic Activation: HAMSTER, LIVER, S-9, AROCLOR 1254 (10%), Method: PREINCUBATION
  mutagenic call: inactive; negative
[1]
  mutagenic call: inactive; negative
Test System: AMES SALMONELLA TYPHIMURIUM, Strain/Indicator: TA98, Metabolic Activation: RAT, LIVER, S-9, AROCLOR 1254 (10%), Method: PREINCUBATION
  mutagenic call: inactive; negative
Test System: AMES SALMONELLA TYPHIMURIUM, Strain/Indicator: TA100, Metabolic Activation: HAMSTER, LIVER, S-9, AROCLOR 1254 (10%), Method: PREINCUBATION
  mutagenic call: inactive; negative
[2]
  mutagenic call: inactive; negative
Test System: AMES SALMONELLA TYPHIMURIUM, Strain/Indicator: TA100, Metabolic Activation: RAT, LIVER, S-9, AROCLOR 1254 (10%), Method: PREINCUBATION
  mutagenic call: inactive; negative
Test System: AMES SALMONELLA TYPHIMURIUM, Strain/Indicator: TA1535, Metabolic Activation: HAMSTER, LIVER, S-9, AROCLOR 1254 (10%), Method: PREINCUBATION
  mutagenic call: inactive; negative
[3]
  mutagenic call: inactive; negative
Test System: AMES SALMONELLA TYPHIMURIUM, Strain/Indicator: TA1535, Metabolic Activation: RAT, LIVER, S-9, AROCLOR 1254 (10%), Method: PREINCUBATION
  mutagenic call: inactive; negative
Test System: AMES SALMONELLA TYPHIMURIUM, Strain/Indicator: TA1537, Metabolic Activation: HAMSTER, LIVER, S-9, AROCLOR 1254 (10%), Method: PREINCUBATION
  mutagenic call: inactive; negative
[4]
  mutagenic call: inactive; negative
Test System: AMES SALMONELLA TYPHIMURIUM, Strain/Indicator: TA1537, Metabolic Activation: RAT, LIVER, S-9, AROCLOR 1254 (10%), Method: PREINCUBATION
  mutagenic call: inactive; negative

## Cc1cccnc1
Test System: AMES SALMONELLA TYPHIMURIUM, Strain/Indicator: TA97, Metabolic Activation: NONE, Method: STANDARD PLATE
  mutagenic call: inactive; negative
Test System: AMES SALMONELLA TYPHIMURIUM, Strain/Indicator: TA97, Metabolic Activation: RAT, LIVER, S-9, AROCLOR 1254, Method: STANDARD PLATE
  mutagenic call: inactive; negative
[5]
  mutagenic call: inactive; negative
[6]
  mutagenic call: inactive; negative
[7]
  mutagenic call: inactive; negative
[8]
  mutagenic call: inactive; negative
Test System: AMES SALMONELLA TYPHIMURIUM, Strain/Indicator: TA102, Metabolic Activation: NONE, Method: STANDARD PLATE
  mutagenic call: inactive; negative
Test System: AMES SALMONELLA TYPHIMURIUM, Strain/Indicator: TA102, Metabolic Activation: RAT, LIVER, S-9, AROCLOR 1254, Method: STANDARD PLATE
  mutagenic call: inactive; negative

## c1ccc2c(c1)cc1ccc3cc4ccccc4c4ccc2c1c34
[5]
  mutagenic call: inactive; negative
[6]
  mutagenic call: active; positive
[7]
  mutagenic call: inactive; negative
[8]
  mutagenic call: active; positive
Test System: AMES SALMONELLA TYPHIMURIUM, Strain/Indicator: TA1537, Metabolic Activation: NONE, Method: STANDARD PLATE
  mutagenic call: inactive; negative
Test System: AMES SALMONELLA TYPHIMURIUM, Strain/Indicator: TA1537, Metabolic Activation: RAT, LIVER, S-9, AROCLOR 1254, Method: STANDARD PLATE
  mutagenic call: inactive; negative
Test System: AMES SALMONELLA TYPHIMURIUM, Strain/Indicator: TA1538, Metabolic Activation: NONE, Method: STANDARD PLATE
  mutagenic call: inactive; negative
Test System: AMES SALMONELLA TYPHIMURIUM, Strain/Indicator: TA1538, Metabolic Activation: RAT, LIVER, S-9, PHENOBARBITAL, Method: STANDARD PLATE
  mutagenic call: active; positive
Test System: HUMAN H1A1V2 CELLS, Strain/Indicator: TK LOCUS, Metabolic Activation: NONE, Method: SUSPENSION/PLATE
  mutagenic call: active; positive

## OCc1ccco1
Test System: AMES SALMONELLA TYPHIMURIUM, Strain/Indicator: TA98, Metabolic Activation: HAMSTER LIVER S-9, AROCLOR 1254 (10%), Method: PREINCUBATION
  mutagenic call: inactive; negative
[1]
  mutagenic call: inactive; negative
[5]
  mutagenic call: inactive; negative
Test System: AMES SALMONELLA TYPHIMURIUM, Strain/Indicator: TA98, Metabolic Activation: RAT LIVER S-9, AROCLOR 1254 (10%), Method: PREINCUBATION
  mutagenic call: inactive; negative
Test System: AMES SALMONELLA TYPHIMURIUM, Strain/Indicator: TA98, Metabolic Activation: RAT, LIVER, S-9, AROCLOR 1254, Method: PREINCUBATION
  mutagenic call: inactive; negative
Test System: AMES SALMONELLA TYPHIMURIUM, Strain/Indicator: TA98, Metabolic Activation: S-9, Method: STANDARD PLATE
  mutagenic call: inactive; negative
Test System: AMES SALMONELLA TYPHIMURIUM, Strain/Indicator: TA100, Metabolic Activation: HAMSTER LIVER S-9, AROCLOR 1254 (10%), Method: PREINCUBATION
  mutagenic call: inactive; negative
[2]
  mutagenic call: inactive; negative
[7]
  mutagenic call: inactive; negative
Test System: AMES SALMONELLA TYPHIMURIUM, Strain/Indicator: TA100, Metabolic Activation: RAT LIVER S-9, AROCLOR 1254 (10%), Method: PREINCUBATION
  mutagenic call: inactive; negative
Test System: AMES SALMONELLA TYPHIMURIUM, Strain/Indicator: TA100, Metabolic Activation: RAT, LIVER, S-9, AROCLOR 1254, Method: PREINCUBATION
  mutagenic call: inactive; negative
Test System: AMES SALMONELLA TYPHIMURIUM, Strain/Indicator: TA100, Metabolic Activation: S-9, Method: STANDARD PLATE
  mutagenic call: inactive; negative
Test System: AMES SALMONELLA TYPHIMURIUM, Strain/Indicator: TA102, Metabolic Activation: NONE, Method: PREINCUBATION
  mutagenic call: inactive; negative
Test System: AMES SALMONELLA TYPHIMURIUM, Strain/Indicator: TA102, Metabolic Activation: RAT, LIVER, S-9, AROCLOR 1254, Method: PREINCUBATION
  mutagenic call: inactive; negative
Test System: AMES SALMONELLA TYPHIMURIUM, Strain/Indicator: TA1535, Metabolic Activation: HAMSTER LIVER S-9, AROCLOR 1254 (10%), Method: PREINCUBATION
  mutagenic call: inactive; negative
[3]
  mutagenic call: inactive; negative
Test System: AMES SALMONELLA TYPHIMURIUM, Strain/Indicator: TA1535, Metabolic Activation: RAT LIVER S-9, AROCLOR 1254 (10%), Method: PREINCUBATION
  mutagenic call: inactive; negative
Test System: AMES SALMONELLA TYPHIMURIUM, Strain/Indicator: TA1537, Metabolic Activation: HAMSTER LIVER S-9, AROCLOR 1254 (10%), Method: PREINCUBATION
  mutagenic call: inactive; negative
[4]
  mutagenic call: inactive; negative
Test System: AMES SALMONELLA TYPHIMURIUM, Strain/Indicator: TA1537, Metabolic Activation: RAT LIVER S-9, AROCLOR 1254 (10%), Method: PREINCUBATION
  mutagenic call: inactive; negative

## CC(C)COP(=S)(OCC(C)C)SCCl
Test System: AMES SALMONELLA TYPHIMURIUM, Strain/Indicator: TA98, Metabolic Activation: NONE
  mutagenic call: inactive; negative
[5]
  mutagenic call: inactive; negative
Test System: AMES SALMONELLA TYPHIMURIUM, Strain/Indicator: TA98, Metabolic Activation: RAT, LIVER, S-9, SODIUM PHENOBARBITAL, Method: STANDARD PLATE
  mutagenic call: inactive; negative
Test System: AMES SALMONELLA TYPHIMURIUM, Strain/Indicator: TA98, Metabolic Activation: S-9
  mutagenic call: inactive; negative
Test System: AMES SALMONELLA TYPHIMURIUM, Strain/Indicator: TA100, Metabolic Activation: NONE
  mutagenic call: inactive; negative
[7]
  mutagenic call: inactive; negative
Test System: AMES SALMONELLA TYPHIMURIUM, Strain/Indicator: TA100, Metabolic Activation: RAT, LIVER, S-9, SODIUM PHENOBARBITAL, Method: STANDARD PLATE
  mutagenic call: inactive; negative
Test System: AMES SALMONELLA TYPHIMURIUM, Strain/Indicator: TA100, Metabolic Activation: S-9
  mutagenic call: inactive; negative
Test System: E. COLI, Strain/Indicator: WP2, Metabolic Activation: NONE
  mutagenic call: inactive; negative
Test System: E. COLI, Strain/Indicator: WP2, Metabolic Activation: RAT, LIVER, S-9, SODIUM PHENOBARBITAL, Method: STANDARD PLATE
  mutagenic call: inactive; negative
Test System: E. COLI, Strain/Indicator: WP2, Metabolic Activation: S-9
  mutagenic call: inactive; negative
Test System: E. COLI, Strain/Indicator: WP2 UVRA, Metabolic Activation: NONE
  mutagenic call: inactive; negative
Test System: E. COLI, Strain/Indicator: WP2 UVRA, Metabolic Activation: RAT, LIVER, S-9, SODIUM PHENOBARBITAL, Method: STANDARD PLATE
  mutagenic call: inactive; negative
Test System: E. COLI, Strain/Indicator: WP2 UVRA, Metabolic Activation: S-9
  mutagenic call: inactive; negative

Reference: PubChem BioAssay AID1259407 (Chemical Carcinogenesis Research Information System (CCRIS), 2018)
